Measurements: PubChem BioAssay AID248 (DTP/NCI, 2004)
Several values for one entry are separate records, joined by “and”; a condition that tells them apart may be missing. Equal values may be shown once. Inconclusive results and toxic doses are left out. Cut-off read from the data, not from the text of the source: active = T/C of 150% or more; inactive = T/C below 125%.

Test system: L1210 leukemia ip in BDF1 mice, survival T/C
Test: NCI In Vivo Anticancer Drug Screen. Data for tumor model L1210 Leukemia (intraperitoneal) in B6D2F1 (BDF1) mice
Settings: endpoint: mean survival time, higher = longer survival
Outline: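 Read-out is survival time, reported as the treated-group measurement over the vehicle-control measurement.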

[1] = dose: 100.0 mg/kg/injection, schedule: Q01DX001 (ip), vehicle: saline
[2] = dose: 200.0 mg/kg/injection, schedule: Q01DX001 (ip), vehicle: saline
[3] = dose: 100.0 mg/kg/injection, schedule: Q01DX009 (ip), vehicle: saline with Tween-80
[4] = dose: 100.0 mg/kg/injection, schedule: Q04DX003 (ip), vehicle: saline
[5] = dose: 200.0 mg/kg/injection, schedule: Q01DX009 (ip), vehicle: saline with Tween-80
[6] = dose: 200.0 mg/kg/injection, schedule: Q04DX003 (ip), vehicle: saline
[7] = dose: 400.0 mg/kg/injection, schedule: Q01DX009 (ip), vehicle: saline with Tween-80
[8] = dose: 400.0 mg/kg/injection, schedule: Q04DX003 (ip), vehicle: saline
[9] = dose: 100.0 mg/kg/injection, schedule: Q04DX003 (ip), vehicle: acetone
[10] = dose: 100.0 mg/kg/injection, schedule: Q04DX002 (ip), vehicle: Klucel (hydroxypropylcellulose) (HPC)
[11] = dose: 200.0 mg/kg/injection, schedule: Q04DX002 (ip), vehicle: Klucel (hydroxypropylcellulose) (HPC)
[12] = dose: 400.0 mg/kg/injection, schedule: Q04DX002 (ip), vehicle: Klucel (hydroxypropylcellulose) (HPC)

Measured: T/C

CCCCN(CC)CC#N
inactive: dose: 6.25 mg/kg/injection, schedule: Q01DX009 (ip), vehicle: saline 104 % of control | dose: 12.5 mg/kg/injection, schedule: Q01DX009 (ip), vehicle: saline 101 % of control | dose: 12.5 mg/kg/injection, schedule: Q04DX003 (ip), vehicle: saline 94 % of control | dose: 25.0 mg/kg/injection, schedule: Q01DX009 (ip), vehicle: saline 93 % of control | dose: 25.0 mg/kg/injection, schedule: Q04DX003 (ip), vehicle: saline 89 % of control

O=NN1CCCCC1C(=O)O (stereo not drawn)
inactive: [1] 98 % of control | [2] 102 % of control

O=C(O)C1CC2C=CC1C2 (stereo not drawn)
inactive: [3] 101 % of control | [4] 102 % of control | [5] 101 % of control | [6] 94 % of control | [7] 102 % of control | [8] 105 % of control

O=c1ccccc(Br)c1O
inactive: [9] 100 % of control | dose: 200.0 mg/kg/injection, schedule: Q04DX003 (ip), vehicle: acetone 98 % of control

C=CCCCCCCCCCC(CCCCCC)C(=O)O (stereo not drawn)
inactive: dose: 100.0 mg/kg/injection, schedule: Q01DX001 (ip), vehicle: saline with Tween-80 101 % of control | dose: 200.0 mg/kg/injection, schedule: Q01DX001 (ip), vehicle: saline with Tween-80 111 % of control | dose: 400.0 mg/kg/injection, schedule: Q01DX001 (ip), vehicle: saline with Tween-80 92 % of control

N#CC(c1ccccc1)C(O)(c1ccccc1)c1ccccc1 (stereo not drawn)
inactive: dose: 50.0 mg/kg/injection, schedule: Q01DX001 (ip), vehicle: saline 98 % of control | [1] 98 % of control | [2] 93 % of control | dose: 400.0 mg/kg/injection, schedule: Q01DX001 (ip), vehicle: saline 91 % of control

CCN(C)O
inactive: dose: 100.0 mg/kg/injection, schedule: Q01DX009 (ip), vehicle: saline 109 % of control | [4] 110 % of control | dose: 200.0 mg/kg/injection, schedule: Q01DX009 (ip), vehicle: saline 111 % of control | [6] 105 % of control | dose: 400.0 mg/kg/injection, schedule: Q01DX009 (ip), vehicle: saline 104 % of control | [8] 114 % of control

Nc1c(Cl)cc([N+](=O)[O-])cc1Cl
inactive: dose: 50.0 mg/kg/injection, schedule: Q01DX001 (ip), vehicle: carboxymethylcellulose (CMC) 95 % of control | dose: 100.0 mg/kg/injection, schedule: Q01DX001 (ip), vehicle: carboxymethylcellulose (CMC) 92 % of control | [3] 103 % of control | dose: 100.0 mg/kg/injection, schedule: Q04DX003 (ip), vehicle: saline with Tween-80 97 % of control | dose: 200.0 mg/kg/injection, schedule: Q01DX001 (ip), vehicle: carboxymethylcellulose (CMC) 106 % of control | [5] 92 % of control | dose: 200.0 mg/kg/injection, schedule: Q04DX003 (ip), vehicle: saline with Tween-80 93 % of control | dose: 400.0 mg/kg/injection, schedule: Q01DX001 (ip), vehicle: carboxymethylcellulose (CMC) 95 % of control | [7] 95 % of control | dose: 400.0 mg/kg/injection, schedule: Q04DX003 (ip), vehicle: saline with Tween-80 93 % of control

Cc1noc2c1CCCC2
inactive: dose: 100.0 mg/kg/injection, schedule: Q04DX003 (ip), vehicle: carboxymethylcellulose (CMC) 103 % of control | dose: 200.0 mg/kg/injection, schedule: Q04DX003 (ip), vehicle: carboxymethylcellulose (CMC) 106 % of control

Cc1[nH]c(=S)oc1C
inactive: dose: 75.0 mg/kg/injection, schedule: Q01DX001 (ip), vehicle: other 105 % of control | dose: 150.0 mg/kg/injection, schedule: Q01DX001 (ip), vehicle: other 97 % of control | dose: 300.0 mg/kg/injection, schedule: Q01DX001 (ip), vehicle: other 103 % of control

CC(=O)OC1CCC2(C)C(CCC3C4CCC(C(C)CC(=O)O)C4CCC32)C1 (stereo not drawn)
inactive: dose: 100.0 mg/kg/injection, schedule: Q04DX003 (sc), vehicle: steriod suspending solution 106 % of control | dose: 200.0 mg/kg/injection, schedule: Q04DX003 (sc), vehicle: steriod suspending solution 106 % of control | dose: 400.0 mg/kg/injection, schedule: Q04DX003 (sc), vehicle: steriod suspending solution 111 % of control

O=C(Nc1ncccc1[N+](=O)[O-])C(Cl)(Cl)Cl
inactive: dose: 100.0 mg/kg/injection, schedule: Q01DX001 (ip), vehicle: Klucel (hydroxypropylcellulose) (HPC) 101 % of control | dose: 100.0 mg/kg/injection, schedule: Q01DX009 (ip), vehicle: Klucel (hydroxypropylcellulose) (HPC) 115 % of control | [10] 100 % of control and 88 % of control | dose: 100.0 mg/kg/injection, schedule: Q04DX003 (ip), vehicle: Klucel (hydroxypropylcellulose) (HPC) 95 % of control | dose: 200.0 mg/kg/injection, schedule: Q01DX001 (ip), vehicle: Klucel (hydroxypropylcellulose) (HPC) 100 % of control | dose: 200.0 mg/kg/injection, schedule: Q01DX009 (ip), vehicle: Klucel (hydroxypropylcellulose) (HPC) 108 % of control | [11] 103 % of control and 91 % of control | dose: 200.0 mg/kg/injection, schedule: Q04DX003 (ip), vehicle: Klucel (hydroxypropylcellulose) (HPC) 106 % of control | dose: 400.0 mg/kg/injection, schedule: Q01DX001 (ip), vehicle: Klucel (hydroxypropylcellulose) (HPC) 101 % of control | [12] 100 % of control and 103 % of control | dose: 400.0 mg/kg/injection, schedule: Q04DX003 (ip), vehicle: Klucel (hydroxypropylcellulose) (HPC) 95 % of control

Clc1ccc(OCc2ccccc2)c(Cl)c1
inactive: [10] 106 % of control | [11] 106 % of control | [12] 95 % of control

CCC(=O)NC(CC(C)C)C(=O)NC(CC(C)C)C(=O)NC(C=O)CCCN=C(N)N (stereo not drawn) (tested in a mixture with another compound)
inactive: dose: 25.0 mg/kg/injection, schedule: Q04DX002 (ip), vehicle: saline 98 % of control | dose: 50.0 mg/kg/injection, schedule: Q04DX002 (ip), vehicle: saline 91 % of control | dose: 100.0 mg/kg/injection, schedule: Q04DX002 (ip), vehicle: saline 91 % of control

CNC(=S)n1ncnc1NC=O
inactive: [9] 98 % of control

CC12OC3C4C(=O)OC1C1OC4(C)C3C(=O)OC12
inactive: [4] 102 % of control | [6] 97 % of control | [8] 95 % of control

O=C(O)c1ccc([N+](=O)[O-])o1
inactive: [3] 89 % of control | dose: 100.0 mg/kg/injection, schedule: Q04DX003 (ip), vehicle: other 100 % of control | [5] 97 % of control | dose: 200.0 mg/kg/injection, schedule: Q04DX003 (ip), vehicle: other 96 % of control

c1ccc2c(c1)cnn1cnnc21
inactive: dose: 75.0 mg/kg/injection, schedule: Q01DX001 (ip), vehicle: carboxymethylcellulose (CMC) 115 % of control | dose: 150.0 mg/kg/injection, schedule: Q01DX001 (ip), vehicle: carboxymethylcellulose (CMC) 97 % of control
